How the values were obtained:
virus HIV (LAV-1-BRU) = test: Protection against the cytopathogenic effect of HIV in infected CEM clone 13 cells (MTT viability); type: cell-based; conditions: day 7
Protocol: (§1) Le test est réalisé sur la lignée lymphoblastoïde CEM clone 13. Dans une microplaque de 96 puits on dépose 25 µl/puits d'une solution de produit à tester ou de tampon phosphate isotonique (TPI) dans le cas des contrôles. Les produits sont étudiés à différentes concentrations (souvent 8), à raison de 4 puits par concentration. On ajoute alors 125 µl d'une suspension de cellules CEM dans le milieu RPMI contenant 10 % de sérum de veau foetal, 40 U/ml de pénicilline, 40 µg/ml de streptomycine et 5 µg/ml de polybrène (3500 cellules par puits) et les microplaques sont incubées une heure à 37°C, sous une atmosphère contenant 5 % de gaz carbonique. Pour chaque concentration, l'essai est partagé en 2 parties : une partie sur cellules infectées, pour la détermination de l'activité antivirale et l'autre partie sur cellules non infectées, pour déterminer la cytotoxicité des produits. On infecte alors la première série avec HIV (100 µl par puit d'une suspension de virus LAV-1-BRU contenant 200-300 TCID50) tandis que l'autre série reçoit 100 µl de milieu RPMI tel que défini précédemment. Au bout de 7 jours d'incubation, 175 µl de surnageant sont prélevés et rejetés. La viabilité cellulaire est déterminée selon une modification de la technique décrite par R. Pauwels et coll., J. Virol. Meth., 20, 309-321 (1988).
(§2) Les puits, contenant encore les cellules (infectées ou non infectées), reçoivent 10 µl d'une solution de MTT (méthylthiazoletétrazolium) à 5 mg/ml dans du tampon phosphate isotonique. Pendant une période d'incubation de 4 heures, le MTT est converti en un sel de formazan (bleu) à l'intérieur des cellules vivantes et proportionnellement à leur nombre, alors que rien n'apparaît dans les puits ne contenant plus que des cellules mortes. On ajoute alors 120 µl d'isopropanol (contenant 0,04 mole/l d'acide chlorhydrique) et les microplaques sont agitées jusqu'à la solubilisation du bleu de formazan. L'absorption à 540 nm est lue avec un lecteur automatique de réactions ELISA en microplaques.
(§3) Pour les essais de plus longue durée, on procède comme décrit précédemment jusqu'au jour 7. A ce moment, 100 µl de cellules sont prélevés pour mesurer la proportion de cellules vivantes et le restant est remis en culture avec du milieu frais contenant les produits aux mêmes concentrations. Cette opération est répétée tous les 4 jours.

[1] = system: lignée lymphoblastoïde CEM clone 13; test: Cytotoxicity on non-infected CEM clone 13 cells (MTT viability); type: cell-based, humaines; conditions: day 7
Protocol: as §1, with “Dans” for “Le test est réalisé sur la lignée lymphoblastoïde CEM clone 13. Dans”, “Virol.” for “Virol. Meth., 20, 309-321 (1988).”
as §2, §3

Compound | Cellules infectées Densité optique (virus HIV (LAV-1-BRU); 0,01 µg/ml) | Cellules infectées Densité optique (virus HIV (LAV-1-BRU); 0,04 µg/ml) | Cellules infectées Densité optique (virus HIV (LAV-1-BRU); 0,12 µg/ml) | Cellules infectées Densité optique (virus HIV (LAV-1-BRU); 0,37 µg/ml) | Cellules infectées Densité optique (virus HIV (LAV-1-BRU); 10 µg/ml) | Cellules infectées Densité optique (virus HIV (LAV-1-BRU); 30 µg/ml) | Cellules infectées Densité optique (virus HIV (LAV-1-BRU); 1,11 µg/ml) | Cellules infectées Densité optique (virus HIV (LAV-1-BRU); 3,33 µg/ml) | Cellules non infectées Densité optique ([1]; 0,01 µg/ml) | Cellules non infectées Densité optique ([1]; 0,04 µg/ml) | Cellules non infectées Densité optique ([1]; 0,12 µg/ml) | Cellules non infectées Densité optique ([1]; 0,37 µg/ml) | Cellules non infectées Densité optique ([1]; 10 µg/ml) | Cellules non infectées Densité optique ([1]; 30 µg/ml) | Cellules non infectées Densité optique ([1]; 1,11 µg/ml) | Cellules non infectées Densité optique ([1]; 3,33 µg/ml) | further results
CN(C)C1C(=O)C(C(N)=O)=C(O)C2(O)C(=O)C3=C(O)c4c(O)cccc4C(C)(O)C3CC12 (stereo not drawn) [Exemple 1, tétracycline] | – | – | – | – | – | – | – | – | – | – | – | – | – | – | – | – | Cellules infectées Densité optique (virus HIV (LAV-1-BRU); 0,03 µg/ml): 0,350; Cellules infectées Densité optique (virus HIV (LAV-1-BRU); 0,08 µg/ml): 0,350; Cellules infectées Densité optique (virus HIV (LAV-1-BRU); 0,25 µg/ml): 0,340; Cellules infectées Densité optique (virus HIV (LAV-1-BRU); 0,74 µg/ml): 0,420; Cellules infectées Densité optique (virus HIV (LAV-1-BRU); 20 µg/ml): 0,400; Cellules infectées Densité optique (virus HIV (LAV-1-BRU); 60 µg/ml): 0,1; Cellules infectées Densité optique (virus HIV (LAV-1-BRU); 2,22 µg/ml): 0,510; Cellules infectées Densité optique (virus HIV (LAV-1-BRU); 6,67 µg/ml): 0,620; Cellules non infectées Densité optique ([1]; 0,03 µg/ml): 1,025; Cellules non infectées Densité optique ([1]; 0,08 µg/ml): 1,080; Cellules non infectées Densité optique ([1]; 0,25 µg/ml): 1,050; Cellules non infectées Densité optique ([1]; 0,74 µg/ml): 1,100; Cellules non infectées Densité optique ([1]; 20 µg/ml): 0,460; Cellules non infectées Densité optique ([1]; 60 µg/ml): 0,1; Cellules non infectées Densité optique ([1]; 2,22 µg/ml): 1,040; Cellules non infectées Densité optique ([1]; 6,67 µg/ml): 0,900
C=C1c2cccc(O)c2C(O)=C2C(=O)C3(O)C(O)=C(C(N)=O)C(=O)C(N(C)C)C3C(O)C12 (stereo not drawn) [Exemple 3, métacycline] | 0,570 | 0,640 | 0,680 | 0,730 | 0,770 | 0,1 | 0,780 | 1,060 | 1,100 | 1,380 | 1,300 | 1,230 | 0,960 | 0,1 | 1,180 | 1,320 | –
lymecycline [Exemple 4] | 0,75 | 1,25 | 1,21 | 1,20 | 1,55 | 1,05 | 1,28 | 1,40 | 1,75 | 1,80 | 1,90 | 1,75 | 1,85 | 1,05 | 1,80 | 1,85 | –

— patent publication EP0394122A2, “Use of tetracyclines to manufacture a medicament for the treatment and prevention of AIDS” (priority 1989, dated 1990)
